# US9458141B2, “Low molecular weight thyroid stimulating hormone receptor (TSHR) agonists” (The United States of America, as represented by the …, priority 2008, dated 2016)
# Read-outs that look alike come from different tables or passages of the source.
# Molecular target: T1, human TSHR (Homo sapiens, UniProt P16473)
# T1 construct: expressed in transfected cells
# Assay: Homogeneous Time Resolved Fluorescence (HTRF) cAMP assay, TSHR cell line
# Type: cell-based
# Settings: for AC50: TSHR cell line, 30 minute incubation; for Maximum Activity compared to TSH: 100% activity = response of 30 mU/ml TSH, 0% = DMSO control, in %; for Emax: read-out: Maximum Activity compared to TSH, 100% activity = response of 30 mU/ml TSH, 0% = DMSO control; call rule not given here
# Source text: Generation of Stable Cell-Lines Expressing TSHR, LHCGR or FSHR.
# cDNA for human TSHR was amplified by PCR from hTSHR-pSVL (1) and inserted into the pcDNA3.1(−)/hygromycin vector using restriction sites XhoI and BamHI. cDNA for human LHCGR was amplified by PCR from hLHR-pGS5 (2) and was inserted into the pcDNA3.1(+)/hygromycin vector using restriction sites BamHI and XhoI. The FSHR cDNA in pcDNA3.1 was obtained from the Missouri S&T cDNA Resource Center (www.cDNA.org) and was subcloned into the pcDNA3.1(−)/hygromycin vector. Constructs were confirmed by sequencing (MWG Biotech). HEK-EM 293 cells were transfected with the cDNA of TSHR, LHCGR or FSHR using FuGENE 6 Transfection reagent (Roche Diagnostics) according to the manufacturer's protocol. Two days after transfection cells were passaged and grown in Dulbecco's modified Eagle's Medium (DMEM) supplemented with 10% fetal bovine serum, 100 units/ml penicillin and 10 μg/ml streptomycin (Life Technologies Inc.) and with hygromycin (250 μg/ml) as a selection marker. After 7 to 10 days hygromycin-resistant clones were selected, and after a few days of further growth submitted for a cAMP assay to identify clones that stably express the appropriate receptor. Cell Culture. Cells stably expressing TSHR, LHCGR or FSHR and parental HEK 293 cells were maintained in DMEM medium containing 10% FBS, 100 units/ml Penicillin, 100 μg/ml Streptomycin, at 37° C. in 5% CO2. For the cells lines stably expressing TSHR, LHCGR or FSHR, additional 250 μg/ml Hygromycin was added during the cell culture. The cells were seeded at a density of 3 to 4 million cells in a T175 flask containing 35 ml of media and were allowed to grow for 3 days to reach 80-90% confluence. A flask of HEK 293 cells at this density generally yielded 30 million cells total. Homogeneous Time Resolved Fluorescence (HTRF) cAMP Assay. Compounds were assayed using a HTRF cAMP detection kit (Cisbio, Bedford, Mass.) on both TSHR cell line and parental cell line. Briefly, 750 cells were plated in 2.5 μl/well of complete media (DMEM containing 10% FCS) in 1536 well solid bottom white plates and 20 nl/well compound in DMSO solution or controls was added. Following 30 minute incubation at room temperature, 2.5 μl/well of labeled d2 cAMP and 2.5 μl/well of anti-cAMP antibody (both diluted 1:20 in lysis buffer) were added to each well using a flying reagent dispenser (Aurora Discovery, San Diego). Plates were measured using the Envision plate reader (PerkinElmer, Boston, Mass.) with excitation at 330 nm and emissions of 615 nm and 660 nm. Compound Preparation. […] Data Analysis. […] The EC50 values of compounds were calculated from the concentration-response curves by nonlinear regression analysis using Prism software (GraphPad Software, San Diego, Calif.). Confirmatory cAMP Assay and Test for Selectivity Towards TSHR 50,000 cells/well were plated in complete media (DMEM containing 10% FCS) in 96 well plates. […] Following aspiration of the medium after incubation with compounds, cells were lysed using lysis buffer of the cAMP-Screen Direct™ System (Applied Biosystems, Cat # CSD200). The cAMP content of the cell lysate was determined using the manufacturer's protocol. […] Below is a List of Compounds that were Assayed via the Homogeneous Time Resolved Fluorescence (HTRF) cAMP Assay.
# T1 sequence (P16473 21-764): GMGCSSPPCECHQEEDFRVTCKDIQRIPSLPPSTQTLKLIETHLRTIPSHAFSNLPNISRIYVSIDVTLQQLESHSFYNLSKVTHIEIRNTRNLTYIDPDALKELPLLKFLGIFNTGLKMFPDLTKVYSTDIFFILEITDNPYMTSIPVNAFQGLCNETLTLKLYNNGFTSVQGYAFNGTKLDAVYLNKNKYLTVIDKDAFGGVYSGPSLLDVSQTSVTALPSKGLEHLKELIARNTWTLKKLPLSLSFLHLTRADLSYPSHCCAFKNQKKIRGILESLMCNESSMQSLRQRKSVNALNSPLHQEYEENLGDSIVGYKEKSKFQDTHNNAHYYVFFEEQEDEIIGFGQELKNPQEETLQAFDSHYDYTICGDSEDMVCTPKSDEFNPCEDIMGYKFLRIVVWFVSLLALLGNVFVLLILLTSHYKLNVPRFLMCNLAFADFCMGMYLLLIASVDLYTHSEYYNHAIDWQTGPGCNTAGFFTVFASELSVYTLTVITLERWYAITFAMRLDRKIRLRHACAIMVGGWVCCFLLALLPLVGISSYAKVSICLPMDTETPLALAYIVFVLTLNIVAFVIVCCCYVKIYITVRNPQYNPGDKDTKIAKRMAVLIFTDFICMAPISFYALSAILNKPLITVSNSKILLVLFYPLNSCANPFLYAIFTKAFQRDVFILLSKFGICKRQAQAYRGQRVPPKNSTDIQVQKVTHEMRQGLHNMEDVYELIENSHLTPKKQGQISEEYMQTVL
smiles,measurement,setting,value
COc1ccc(C2Nc3ccccc3C(=O)N2Cc2ccccc2)cc1OCc1ccc(NC(C)=O)cc1 (stereo not shown) [Structure 228],AC50,HTRF cAMP,inactive
COc1ccc(CN(Cc2ccccc2)C(=O)Nc2ccccc2)cc1COc1ccc(NC(C)=O)cc1 [Structure 135],Maximum Activity compared to TSH,,48.07
COc1ccc(C2Nc3ccccc3C(=O)N2Cc2ccco2)cc1COc1ccc(NC(C)=O)cc1 (stereo not shown) [Structure 59],Maximum Activity compared to TSH,,226.43
same,AC50,"HTRF cAMP, read-out: AC50",17.8 µM
COc1ccc(C2Nc3ccccc3C(=O)N2Cc2ccco2)cc1COc1ccc(NC(C)=O)cc1 (stereo not shown) [Structure 8],Maximum Activity compared to TSH,,115.96
same,AC50,"HTRF cAMP, read-out: AC50",14.1 µM
COc1ccc(C2Nc3ccccc3C(=O)N2Cc2ccccc2)cc1COc1ccc(C(N)=O)cc1 (stereo not shown) [Structure 270],AC50,HTRF cAMP,inactive
COc1ccc(C2Nc3ccccc3C(=O)N2CCO)cc1COc1ccc(NC(C)=O)cc1 (stereo not shown) [Structure 221],AC50,HTRF cAMP,inactive
COc1ccc(C2Nc3ccccc3C(=O)N2Cc2ccccc2)cc1COc1cccc(Cl)c1 (stereo not shown) [Structure 278],AC50,HTRF cAMP,inactive
COc1ccc(C2Nc3ccccc3C(=O)N2Cc2ccc(Cl)cc2)cc1COc1ccc(NC(C)=O)cc1 (stereo not shown) [Structure 72],AC50,"HTRF cAMP, read-out: AC50",3.98 µM
same,Emax,,55.2%
COc1cccc(-c2nc(SC)nc3sc(C(=O)NC(C)(C)C)c(N)c23)c1 [Structure 239],Maximum Activity compared to TSH,,30.00
same,AC50,"HTRF cAMP, read-out: AC50",17.8 µM
COc1ccc(C2N(Cc3ccccc3)C(=O)c3ccccc3N2C)cc1COc1ccc(NC(C)=O)cc1 (stereo not shown) [Structure 267],Maximum Activity compared to TSH,,24.50
same,AC50,"HTRF cAMP, read-out: AC50",7.94 µM
COc1ccc(O)c(C2Nc3ccccc3C(=O)N2Cc2ccccc2)c1 (stereo not shown) [Structure 216],AC50,HTRF cAMP,inactive
COc1ccc(CN(Cc2ccccc2)C(=O)C2CC2)cc1COc1ccc(NC(C)=O)cc1 [Structure 81],Maximum Activity compared to TSH,,76.98
same,AC50,"HTRF cAMP, read-out: AC50",15.8 µM
COc1ccc(C2Cc3ccccc3C(=O)N2Cc2ccccc2)cc1COc1ccc(NC(C)=O)cc1 (stereo not shown) [Structure 76],Maximum Activity compared to TSH,,64.77
same,AC50,"HTRF cAMP, read-out: AC50",6.31 µM
COc1ccc(C(=O)N(Cc2ccccc2)Cc2ccccc2)c(O)c1 [Structure 114],Maximum Activity compared to TSH,,51.15
same,AC50,"HTRF cAMP, read-out: AC50",25.1 µM
COc1ccc(C2Nc3ccccc3C(=O)N2Cc2ccccc2)cc1COc1cccc(C(F)(F)F)c1 (stereo not shown) [Structure 164],AC50,HTRF cAMP,inactive
COc1ccc(C2Nc3ccccc3C(=O)N2Cc2ccccc2C(F)(F)F)cc1COc1ccc(NC(C)=O)cc1 (stereo not shown) [Structure 88],AC50,"HTRF cAMP, read-out: AC50",5.62 µM
same,Emax,,30.5%
COc1ccc(C2Nc3ccccc3C(=O)N2Cc2ccco2)cc1COc1ccc(NC(C)=O)cc1 (stereo not shown) [Structure 23],Maximum Activity compared to TSH,,165.50
same,AC50,"HTRF cAMP, read-out: AC50",15.8 µM
COc1ccc(-c2nc3ccccc3c(=O)n2Cc2ccco2)cc1COc1ccc(NC(C)=O)cc1 [Structure 33],AC50,"HTRF cAMP, read-out: AC50",17.8 µM
same,Emax,,169%
COc1ccc(C2Nc3ccccc3C(=O)N2Cc2ccccc2)cc1COc1ccc(F)cc1 (stereo not shown) [Structure 272],AC50,HTRF cAMP,inactive
COc1ccc(C2Nc3cccc(O)c3C(=O)N2Cc2ccccc2)cc1COc1ccc(NC(C)=O)cc1 (stereo not shown) [Structure 28],Maximum Activity compared to TSH,,405.10
same,AC50,"HTRF cAMP, read-out: AC50",10 µM
COc1ccc(CN(Cc2ccccc2)C(=O)c2ccccc2)cc1COc1ccc(NC(C)=O)cc1 [Structure 31],Maximum Activity compared to TSH,,153.40
same,AC50,"HTRF cAMP, read-out: AC50",11.2 µM
COc1ccc(C2Nc3ccccc3C(=O)N2Cc2ccccc2)cc1COc1ccc(Cl)cc1 (stereo not shown) [Structure 140],AC50,HTRF cAMP,inactive
COc1ccc(CN(Cc2ccccc2)C(=O)c2cccc(C#N)c2)cc1COc1ccc(NC(C)=O)cc1 [Structure 71],Maximum Activity compared to TSH,,44.19
same,AC50,"HTRF cAMP, read-out: AC50",7.94 µM
COc1ccc(C2Nc3ccccc3C(=O)N2Cc2ccco2)cc1COc1ccc(NC(C)=O)cc1 (stereo not shown) [Structure 42],Maximum Activity compared to TSH,,131.51
same,AC50,"HTRF cAMP, read-out: AC50",14.1 µM
COc1ccc(CN2C(=O)N(c3ccccc3)C(=O)C2c2ccccc2)cc1COc1ccc(NC(C)=O)cc1 (stereo not shown) [Structure 247],AC50,HTRF cAMP,inactive
COc1ccc(C2Nc3ccccc3C(=O)N2Cc2ccccc2C(F)(F)F)cc1COc1ccc(NC(C)=O)cc1 (stereo not shown) [Structure 265],Maximum Activity compared to TSH,,24.00
same,AC50,"HTRF cAMP, read-out: AC50",6.31 µM
O=C(c1ccccc1O)N(Cc1ccco1)Cc1cccs1 [Structure 113],AC50,"HTRF cAMP, read-out: AC50",39.8 µM
same,Emax,,63.8%
"COc1ccc(C2Nc3ccccc3C(=O)N2Cc2ccccc2)cc1COc1ccc(NC(C)=O)cc1 (single isomer, unassigned) [Structure 62]",Maximum Activity compared to TSH,,241.92
same,AC50,"AC50, HTRF cAMP",7.08 µM
COc1ccc(CNCc2ccccc2)cc1COc1ccc(NC(C)=O)cc1 [Structure 285],AC50,HTRF cAMP,inactive
COc1ccc(C2Nc3cccc(OC)c3C(=O)N2Cc2ccccc2)cc1COc1ccc(NC(C)=O)cc1 (stereo not shown) [Structure 106],AC50,"HTRF cAMP, read-out: AC50",17.8 µM
same,Emax,,45.4%
O=C(c1ccccc1O)N(Cc1cccs1)Cc1cccs1 [Structure 133],AC50,"HTRF cAMP, read-out: AC50",31.6 µM
same,Emax,,55.3%
COc1ccc(C2Nc3ccccc3C(=O)N2Cc2ccccc2)cc1CSc1ccc(NC(C)=O)cc1 (stereo not shown) [Structure 22],Maximum Activity compared to TSH,,463.89
same,AC50,"HTRF cAMP, read-out: AC50",7.94 µM
COc1ccc(C2Nc3ccccc3C(=O)N2Cc2ccccc2OC)cc1COc1ccc(NC(C)=O)cc1 (stereo not shown) [Structure 279],Maximum Activity compared to TSH,,20.50
same,AC50,"HTRF cAMP, read-out: AC50",4.47 µM
COc1ccc(C2Nc3ccccc3C(=O)N2Cc2ccco2)cc1COc1ccc(NC(C)=O)cc1 (stereo not shown) [Structure 91],Maximum Activity compared to TSH,,88.07
same,AC50,"HTRF cAMP, read-out: AC50",15.8 µM
COc1ccc(C2Nc3ccccc3C(=O)N2Cc2ccccc2C)cc1COc1ccc(NC(C)=O)cc1 (stereo not shown) [Structure 280],AC50,"HTRF cAMP, read-out: AC50",17.8 µM
same,Emax,,24%
COc1ccc(C2Nc3ccccc3C(=O)N2Cc2ccc(C(F)(F)F)cc2)cc1COc1ccc(NC(C)=O)cc1 (stereo not shown) [Structure 197],AC50,"HTRF cAMP, read-out: AC50",2.82 µM
same,Emax,,17%
O=C1c2ccccc2NC(c2ccccc2O)N1Cc1ccccc1 (stereo not shown) [Structure 157],AC50,HTRF cAMP,inactive
COc1ccc(CN(Cc2ccccc2)C(=O)c2ccccc2N)cc1COc1ccc(NC(C)=O)cc1 [Structure 21],Maximum Activity compared to TSH,,236.35
same,AC50,"HTRF cAMP, read-out: AC50",25.1 µM
COc1ccc(C2Nc3ccccc3C(=O)N2Cc2cccc(-c3ccccc3)c2)cc1COc1ccc(NC(C)=O)cc1 (stereo not shown) [Structure 79],Maximum Activity compared to TSH,,61.52
same,AC50,"HTRF cAMP, read-out: AC50",1.78 µM
COc1ccc(C2Nc3ccccc3C(=O)N2CCCN(C)C)cc1COc1ccc(NC(C)=O)cc1 (stereo not shown) [Structure 146],AC50,HTRF cAMP,inactive
COc1ccc(C2Nc3ccccc3C(=O)N2Cc2ccccc2)cc1COc1cccc(Cl)c1 (stereo not shown) [Structure 259],AC50,HTRF cAMP,inactive
COc1ccc(C2Nc3ccccc3C(=O)N2Cc2ccccc2)cc1Oc1ccc(NC(C)=O)cc1 (stereo not shown) [Structure 243],AC50,HTRF cAMP,inactive
COc1ccc(C2Nc3ccccc3C(=O)N2Cc2ccccn2)cc1COc1ccc(NC(C)=O)cc1 (stereo not shown) [Structure 269],Maximum Activity compared to TSH,,28.00
same,AC50,"HTRF cAMP, read-out: AC50",25.1 µM
"COc1ccc(C2Nc3ccccc3C(=O)N2Cc2ccccc2)cc1COc1ccc(NC(C)=O)cc1 (single isomer, unassigned) [Structure 37]",Maximum Activity compared to TSH,,104.22
same,AC50,"AC50, HTRF cAMP",8.91 µM
O=C1c2ccccc2NC(c2ccccc2O)N1Cc1ccccc1 (stereo not shown) [Structure 180],AC50,HTRF cAMP,inactive
"COc1ccc(C2Nc3ccccc3C(=O)N2Cc2ccccc2)cc1COc1ccc(NC(C)=O)cc1 (single isomer, unassigned) [Structure 4]",Maximum Activity compared to TSH,,171.91
same,AC50,"AC50, HTRF cAMP",7.08 µM
